One test concerns TNFα. Nature of the test: cells. The format is cell-based, human. To be noted: Homo sapiens, Monocyte, LPS-stimulated human monocytes, TNFα content; read-out: EC50 TNF.
The target in a further test is IRAK4 enzyme (Homo sapiens (Human), UniProt Q9NWZ3). Nature of the test: biochemical. The format is biochemical. To be noted: IRAK4 enzyme, TR-FRET, 500 μM ATP.

SMILES strings stand for the structures. Some results are limits rather than exact numbers.

IRAK4 enzyme, sequence (Q9NWZ3 whole entry): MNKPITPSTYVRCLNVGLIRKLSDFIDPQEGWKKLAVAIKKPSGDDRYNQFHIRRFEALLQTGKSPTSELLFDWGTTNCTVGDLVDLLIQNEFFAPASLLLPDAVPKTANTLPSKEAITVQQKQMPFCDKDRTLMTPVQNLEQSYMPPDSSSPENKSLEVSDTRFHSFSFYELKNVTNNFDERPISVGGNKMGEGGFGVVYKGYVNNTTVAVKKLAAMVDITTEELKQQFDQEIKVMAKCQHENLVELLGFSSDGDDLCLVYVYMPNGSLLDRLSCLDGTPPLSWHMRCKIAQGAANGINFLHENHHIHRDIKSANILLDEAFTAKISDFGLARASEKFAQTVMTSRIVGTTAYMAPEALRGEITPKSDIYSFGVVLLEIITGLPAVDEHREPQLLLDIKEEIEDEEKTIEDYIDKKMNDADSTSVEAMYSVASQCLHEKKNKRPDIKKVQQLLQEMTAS

`CC(C)Nc1cc(-c2ccc3cc(C(N)=O)cnn23)ncc1C(=O)NC1CS(=O)(=O)C1` [Example 78, 7-(5-((1,1-dioxidothietan-3-yl)carbamoyl)-4-(isopropyl-amino)pyridin-2-yl)pyrrolo[1,2-b] pyridazine-3-carboxamide]: in the test with TNFα, the EC50 amounted to 1620 nM. Further, at IRAK4 enzyme, it took 27 nM to reach half-maximal inhibition (IC50).
Taken in the same sequence, the figures for `CC(C)Nc1cc(-c2ccc3cc(C(N)=O)cnn23)ncc1C(=O)NCC1CS(=O)(=O)C1` [Example 79, 7-(5-(((1,1-dioxidothietan-3-yl)methyl)carbamoyl)-4-(isopropylamino)pyridin-2-yl)pyrrolo[1,2-b] pyridazine-3-carboxamide] were 1820 nM and 18 nM.
Taken in the same sequence, the figures for `CC(C)(O)CCNc1cc(-c2ccc3cc(C#N)cnn23)ncc1C(=O)NC[C@@H](F)C(C)(C)O` [Example 80, (R)-6-(3-cyanopyrrolo[1,2-b]pyridazin-7-yl)-N-(2-fluoro-3-hydroxy-3-methylbutyl)-4-((3-hydroxy-3-methylbutyl)amino) nicotinamide] were 88 nM and less than 1 nM.
Taken in the same sequence, the figures for `CC1(C)CC(Nc2cc(-c3ccc4cc(C#N)cnn34)ncc2C(=O)NC[C@@H](F)C(C)(C)O)CCO1` (stereo partly drawn) [Example 81, 6-(3-cyanopyrrolo[1,2-b]pyridazin-7-yl)-4-((2,2-dimethyltetrahydro-2H-pyran-4-yl)amino)-N-((R)-2-fluoro-3-hydroxy-3-methylbutyl) nicotinamide] were 134 nM and 1 nM.
`CC(C)(O)[C@H](F)CNC(=O)c1cnc(-c2ccc3cc(C#N)cnn23)cc1NC1CC2(COC2)C1` [Example 82, (R)-4-(2-oxaspiro[3.3]heptan-6-ylamino)-6-(3-cyanopyrrolo[1,2-b]pyridazin-7-yl)-N-(2-fluoro-3-hydroxy-3-methylbutyl) nicotinamide]: the EC50 in the test with TNFα was 79 nM. Further, the IC50 at IRAK4 enzyme was less than 1 nM.
The corresponding values for `CC(C)(O)[C@H](F)CNC(=O)c1cnc(-c2ccc3cc(C#N)cnn23)cc1NC1CCN(C2COC2)CC1` [Example 83, (R)-6-(3-cyanopyrrolo[1,2-b]pyridazin-7-yl)-N-(2-fluoro-3-hydroxy-3-methylbutyl)-4-((1-(oxetan-3-yl)piperidin-4-yl)amino) nicotinamide] are 221 nM and 1 nM.
Consider `CC(C)Nc1cc(-c2ccc3cc(C#N)cnn23)ncc1C(=O)NCCCS(C)(=O)=O` [Example 85, 6-(3-cyanopyrrolo[1,2-b]pyridazin-7-yl)-4-(isopropyl-amino)-N-(3-(methylsulfonyl)propyl) nicotinamide], for which the EC50 with TNFα came out at 67 nM. Further, inhibition at IRAK4 enzyme was half-maximal at 1 nM (IC50).
Taken in the same sequence, the figures for `CC(C)Nc1cc(-c2ccc3cc(C#N)cnn23)ncc1C(=O)NC1CCN(C2COC2)CC1` [Example 86, 6-(3-cyanopyrrolo[1,2-b]pyridazin-7-yl)-4-(isopropylamino)-N-(1-(oxetan-3-yl)piperidin-4-yl) nicotinamide] were 321 nM and 4 nM.
The corresponding values for `COC(C)(C)CCNC(=O)c1cnc(-c2ccc3cc(C#N)cnn23)cc1NC(C)C` [Example 87, 6-(3-cyanopyrrolo[1,2-b]pyridazin-7-yl)-4-(isopropylamino)-N-(3-methoxy-3-methylbutyl)nicotinamide] are 160 nM and 1 nM.
Regarding `CC(C)Nc1cc(-c2ccc3cc(C#N)cnn23)ncc1C(=O)NCCNS(C)(=O)=O` [Example 88, 6-(3-cyanopyrrolo[1,2-b]pyridazin-7-yl)-4-(isopropyl-amino)-N-(2-(methylsulfonamido)ethyl) nicotinamide], the EC50 with TNFα came to 209 nM. The same molecule came in with an IC50 at IRAK4 enzyme of 3 nM.
Taken in the same sequence, the figures for `CC(C)(O)[C@H](F)CNC(=O)c1cnc(-c2ccc3cc(C#N)cnn23)cc1Nc1cnn(CC(F)F)c1` [Example 89, (R)-6-(3-cyanopyrrolo[1,2-b]pyridazin-7-yl)-4-((1-(2,2-difluoroethyl)-1H-pyrazol-4-yl)amino)-N-(2-fluoro-3-hydroxy-3-methylbutyl) nicotinamide] were 16 nM and less than 1 nM.
For the molecule `CC(C)Nc1cc(-c2ccc3cc(C#N)cnn23)ncc1C(=O)NC1CCC(C)(O)CC1` (stereo not shown) [Example 90, 6-(3-cyanopyrrolo[1,2-b]pyridazin-7-yl)-N-((1s,4s)-4-hydroxy-4-methylcyclohexyl)-4-(isopropylamino) nicotinamide], in the test on TNFα, the EC50 was found to be 417 nM. On IRAK4 enzyme, this molecule displayed a concentration for half-maximal inhibition (IC50) of 3 nM.
Turning to `CC(C)Nc1cc(-c2ccc3cc(C#N)cnn23)ncc1C(=O)NCCC1(O)CCC1` [Example 91, 6-(3-cyanopyrrolo[1,2-b]pyridazin-7-yl)-N-(2-(1-hydroxycyclobutyl)ethyl)-4-(isopropylamino) nicotinamide], in the test with TNFα, the EC50 was determined as 62 nM. At IRAK4 enzyme, the IC50 was less than 1 nM.
The corresponding values for `CC(C)Nc1cc(-c2ccc3cc(C#N)cnn23)ncc1C(=O)NCCS(C)(=O)=O` [Example 92, 6-(3-cyanopyrrolo[1,2-b]pyridazin-7-yl)-4-(isopropylamino)-N-(2-(methylsulfonyl)ethyl) nicotinamide] are 80 nM and 2 nM.
Regarding `CC(C)(O)[C@H](F)CNC(=O)c1cnc(-c2ccc3cc(C#N)cnn23)cc1N[C@@H]1C[C@@H]2CC[C@H]1O2` [Example 93, 4-(((1R,2R,4S)-7-oxabicyclo[2.2.1]heptan-2-yl)amino)-6-(3-cyano-pyrrolo[1,2-b]pyridazin-7-yl)-N-((R)-2-fluoro-3-hydroxy-3-methylbutyl)nicotinamide], the EC50 with TNFα was 78 nM. For the same molecule, the IC50 on IRAK4 enzyme was determined as 1 nM.
Taken in the same sequence, the figures for `CC(C)(O)[C@H](F)CNC(=O)c1cnc(-c2ccc3cc(C#N)cnn23)cc1N[C@@H]1C[C@H]2CC[C@@H]1O2` [Example 94, 4-(((1S,2R,4R)-7-oxa-bicyclo[2.2.1]heptan-2-yl)amino)-6-(3-cyanopyrrolo[1,2-b]pyridazin-7-yl)-N-((R)-2-fluoro-3-hydroxy-3-methylbutyl)nicotinamide] were 92 nM and 1 nM.
For the molecule `CC(C)Nc1cc(-c2ccc3cc(C#N)cnn23)ncc1C(=O)NCCC1(O)CCOCC1` [Example 95, 6-(3-cyanopyrrolo[1,2-b]pyridazin-7-yl)-N-(2-(4-hydroxytetrahydro-2H-pyran-4-yl)ethyl)-4-(isopropylamino) nicotinamide], the EC50 in the test with TNFα stood at 42 nM. This molecule had an IC50 against IRAK4 enzyme of 1 nM.
Consider `CC(C)Nc1cc(-c2ccc3cc(C#N)cnn23)ncc1C(=O)NC1CC2(COC2)C1` [Example 96, 6-(3-cyanopyrrolo[1,2-b]pyridazin-7-yl)-4-(isopropyl-amino)-N-(2-oxaspiro[3.3]heptan-6-yl) nicotinamide], for which the EC50 with TNFα was found to be 79 nM. This molecule also displayed a 50% inhibitory concentration (IC50) against IRAK4 enzyme of 2 nM.
Taken in the same sequence, the figures for `CC(C)(O)[C@H](F)CNC(=O)c1cnc(-c2ccc3cc(C#N)cnn23)cc1NCC1(O)CC1` [Example 97, (R)-6-(3-cyanopyrrolo[1,2-b]pyridazin-7-yl)-N-(2-fluoro-3-hydroxy-3-methylbutyl)-4-(((1-hydroxycyclopropyl)methyl)amino)nicotinamide] were 180 nM and 2 nM.
`CC(C)(O)[C@H](F)CNC(=O)c1cnc(-c2ccc3cc(C#N)cnn23)cc1NC1CN(S(C)(=O)=O)C1` [Example 98, (R)-6-(3-cyanopyrrolo[1,2-b]pyridazin-7-yl)-N-(2-fluoro-3-hydroxy-3-methylbutyl)-4-((1-(methylsulfonyl)azetidin-3-yl)amino)nicotinamide]: the EC50 with TNFα turned out to be 358 nM. Moreover, at IRAK4 enzyme, half-maximal inhibition (IC50) was put at 2 nM.
As for `CC(C)(O)[C@H](F)CNC(=O)c1cnc(-c2ccc3cc(C#N)cnn23)cc1NC1CC2(CCC2)C1` [Example 99, (R)-6-(3-cyanopyrrolo[1,2-b]pyridazin-7-yl)-N-(2-fluoro-3-hydroxy-3-methylbutyl)-4-(spiro[3.3]heptan-2-ylamino)nicotinamide], the EC50 in the test on TNFα came to 130 nM. In addition, 1 nM corresponded to half-maximal inhibition at IRAK4 enzyme (IC50).
Take `COCCNc1cc(-c2ccc3cc(C#N)cnn23)ncc1C(=O)NC[C@@H](F)C(C)(C)O` [Example 100, (R)-6-(3-cyanopyrrolo[1,2-b]pyridazin-7-yl)-N-(2-fluoro-3-hydroxy-3-methylbutyl)-4-((2-methoxyethyl)amino) nicotinamide]: the EC50 in the test with TNFα stood at 195 nM. Also, the IC50 at IRAK4 enzyme was determined as 4 nM.
The corresponding values for `CC(C)(O)[C@H](F)CNC(=O)c1cnc(-c2ccc3cc(C#N)cnn23)cc1N[C@H]1C[C@@H]2CC[C@H]1C2` [Example 101, 4-(((1S,2S,4R)-bicyclo[2.2.1]heptan-2-yl)amino)-6-(3-cyanopyrrolo[1,2-b]pyridazin-7-yl)-N-((R)-2-fluoro-3-hydroxy-3-methylbutyl) nicotinamide] are 82 nM and less than 1 nM.
Taken in the same sequence, the figures for `CC(C)(O)[C@H](F)CNC(=O)c1cnc(-c2ccc3cc(C#N)cnn23)cc1NCCCS(C)(=O)=O` [Example 103, (R)-6-(3-cyanopyrrolo[1,2-b]pyridazin-7-yl)-N-(2-fluoro-3-hydroxy-3-methylbutyl)-4-((3-(methylsulfonyl)propyl)amino)nicotinamide] were 75 nM and less than 1 nM.
The corresponding values for `Cn1cc(CNc2cc(-c3ccc4cc(C#N)cnn34)ncc2C(=O)NC[C@@H](F)C(C)(C)O)cn1` [Example 104, (R)-6-(3-cyanopyrrolo[1,2-b]pyridazin-7-yl)-N-(2-fluoro-3-hydroxy-3-methylbutyl)-4-(((1-methyl-1H-pyrazol-4-yl)methyl)amino) nicotinamide] are 274 nM and 6 nM.
As for `CC(C)(O)[C@H](F)CNC(=O)c1cnc(-c2ccc3cc(C#N)cnn23)cc1NCc1c[nH]cn1` [Example 105, (R)-4-(((1H-imidazol-4-yl)methyl)amino)-6-(3-cyanopyrrolo[1,2-b]pyridazin-7-yl)-N-(2-fluoro-3-hydroxy-3-methylbutyl)nicotinamide], in the test on TNFα, the EC50 was 3160 nM. This molecule also gave an IC50 against IRAK4 enzyme of 9 nM.

A word on the EC50: it is the concentration needed to bring the measured effect to its halfway point. The term IC50 denotes the concentration that inhibits the measured activity by half. Lower therefore signals higher potency.

Values taken from patent US10336762B2 (priority 2017, dated 2019).
